Laboratory results taken from US9115079B2, “NDM inhibitor” (priority 2011, dated 2015).
Where a name gives a salt, the structure may show the parent alone.

Biological target: NDM-1 (Klebsiella pneumoniae, UniProt C7C422)
Assay: biochemical
Conditions: NDM-1 2.5 nM, 100 μM imipenem as substrate, 100 μM ZnSO4, pH 7.5, 30° C.
Protocol: Amplification was carried out by a polymerase chain reaction (PCR) with Pyrobest DNA polymerase (Takara Bio) in which a plasmid having an NDM-1 gene sequence (GenBank Accession number: FN396876) synthesized by Life Technologies Japan Ltd. (consignment synthesis) was used as a template and two primers ([…] and […]) were used. The amplified DNA fragments were digested with restriction enzymes Nco I and Xho I and were incorporated in a vector pET-28a(+) to acquire a recombinant plasmid. The plasmid was transformed into E. coli BL21(DE3) (Novagen), and the transformants thus obtained were grown to an absorbance at 600 nm of about 0.7 in 0.8 L of an SB medium (1.2% (w/v) bacto tryptone, 2.4% (w/v) yeast extract, 0.5% (v/v) glycerol, 0.072 M dipotassium hydrogenphosphate, and 0.028 M potassium dihydrogenphosphate) containing 30 μg/ml kanamycin. Isopropyl-β-D-thiogalactopyranoside was added to a final concentration of 1 mM, and induction was carried out at 20° C. overnight, followed by harvesting with a centrifuge.
50 mM HEPES (pH 7.5), 20 μg/ml BSA, 100 μM ZnSO4, 2% DMSO, and 100 μM imipenem as a substrate (these concentrations being final concentration) were added into a 1 ml quartz cell. […] A plurality of inhibitor concentrations were studied, a sigmoid curve was prepared from each inhibitory activity, and IC50 values were calculated.

Sequence of NDM-1 (C7C422 29-270, looked up): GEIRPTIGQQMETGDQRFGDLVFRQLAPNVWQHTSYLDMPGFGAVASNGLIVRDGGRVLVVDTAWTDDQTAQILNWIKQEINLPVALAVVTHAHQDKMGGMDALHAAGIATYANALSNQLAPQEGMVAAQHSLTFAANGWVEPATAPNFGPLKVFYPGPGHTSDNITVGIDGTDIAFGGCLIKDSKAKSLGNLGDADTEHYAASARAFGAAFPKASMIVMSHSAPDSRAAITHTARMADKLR

Compound | IC50 [µM]
CCC/C(C(=O)O)=C(\CCC)C(=O)O [Example 2, Disodium 2,3-di-n-propylmaleate] | 10 to 30
CC/C(C(=O)O)=C(\Cc1ccc(O)cc1)C(=O)O [Example 5, Disodium 3-ethyl-2-(4-hydroxybenzyl)maleate] | < 10
O=C(O)/C(Cc1ccccc1)=C(/Cc1ccccc1)C(=O)O [Example 6, Disodium 2,3-dibenzylmaleate] | < 10
O=C(O)/C(CCc1ccccc1)=C(/Cc1ccccc1)C(=O)O [Example 7, Disodium 2-benzyl-3-phenethylmaleate] | < 10
O=C(O)/C(CCc1ccccc1)=C(/CCc1ccccc1)C(=O)O [Example 8, Disodium 2,3-diphenethylmaleate] | < 10
C/C(C(=O)O)=C(/C(=O)O)C(C)C [Example 9, Disodium 2-isopropyl-3-methylmaleate] | 30 to 100
CC(C)/C(C(=O)O)=C(/C(=O)O)C(C)C [Example 11, Disodium 2,3-diisopropylmaleate] | 10 to 30
Cc1ccccc1C/C(C(=O)O)=C(/C(=O)O)C(C)C [Example 13, Disodium 2-isopropyl-3-(2-methylphenyl)methylmaleate] | 10 to 30
CC/C(C(=O)O)=C(/C(=O)O)C1CCCC1 [Example 14, Disodium 2-cyclopentyl-3-ethylmaleate] | < 10
O=C(O)/C(Cc1ccccc1)=C(\C(=O)O)C1CCCC1 [Example 16, Disodium 3-benzyl-2-cyclopentylmaleate] | < 10
O=C(O)/C(=C(\C(=O)O)C1CCCC1)C1CCCC1 [Example 17, Disodium 2,3-dicyclopentylmaleate] | < 10
CC(C)/C(C(=O)O)=C(/C(=O)O)C1CCOCC1 [Example 22, Disodium 3-isopropyl-2-(tetrahydropyran-4-yl)maleate] | 10 to 30
CC(C)/C(C(=O)O)=C(\Cc1cccnc1)C(=O)O [Example 23, Disodium 2-isopropyl-3-[(pyridine-3-yl)methyl]maleate] | 30 to 100
CC/C(C(=O)O)=C(\SC(C)C)C(=O)O [Example 24, Disodium 3-ethyl-2-isopropylthiomaleate] | 30 to 100
CC(C)/C(C(=O)O)=C(\Cc1ccc(C(=O)N2CCOCC2)cc1)C(=O)O [Example 27, Disodium 2-isopropyl-3-[4-(morpholine-1-carbonyl)benzyl]maleate] | 10 to 30
CC(C)/C(C(=O)O)=C(\Cc1ccc(C(=O)N2CCC(O)CC2)cc1)C(=O)O [Example 28, Disodium 2-[4-(4-hydroxypiperidine-1-carbonyl)benzyl]-3-isopropylmaleate] | 30 to 100
CC(C)/C(C(=O)O)=C(\Cc1ccc(C(=O)NCC(N)=O)cc1)C(=O)O [Example 29, Disodium 2-[4-(2-amino-2-oxoethylcarbamoyl)benzyl]-3-isopropylmaleate] | < 10
COc1ccc(C/C(C(=O)O)=C(/C(=O)O)C(C)C)cc1 [Example 30, Disodium 2-isopropyl-3-(4-methoxybenzyl)maleate] | < 10
CC(C)/C(C(=O)O)=C(\Cc1ccc(OCC(N)=O)cc1)C(=O)O [Example 33, Disodium 2-[4-(2-amino-2-oxoethoxy)benzyl]-3-isopropylmaleate] | < 10
CC(C)/C(C(=O)O)=C(\Cc1ccc(OCCN)cc1)C(=O)O [Example 34, Disodium 2-[4-(2-aminoethoxy)benzyl]-3-isopropylmaleate] | < 10
CC(C)/C(C(=O)O)=C(\Cc1ccc(OCCn2ccnc2)cc1)C(=O)O [Example 35, Disodium 2-{4-[2-(1H-imidazol-1-yl)ethoxy]benzyl}-3-isopropylmaleate] | < 10
O=C(O)/C(=C(\C(=O)O)[C@H]1CC[C@@H](O)CC1)C1CCCC1 [Example 38, Disodium 2-cyclopentyl-3-(cis-4-hydroxycyclohexyl)maleate] | < 10
O=C(O)/C(=C(\C(=O)O)C1CCOCC1)C1CCOCC1 [Example 40, Disodium 2,3-bis(tetrahydro-2H-pyran-4-yl)maleate] | 30 to 100

Results, then the compound that gave them:

IC50 [µM] | Compound
10 to 30 | CC/C(C(=O)O)=C(\Cc1ccccc1)C(=O)O [Example 4, Disodium 2-benzyl-3-ethylmaleate]
10 to 30 | CC/C(C(=O)O)=C(/C(=O)O)C(C)C [Example 10, Disodium 3-ethyl-2-isopropylmaleate]
10 to 30 | CC(C)/C(C(=O)O)=C(\Cc1ccccc1)C(=O)O [Example 12, Disodium 3-benzyl-2-isopropylmaleate]
< 10 | CC(C)/C(C(=O)O)=C(/C(=O)O)C1CCCC1 [Example 15, Disodium 2-cyclopentyl-3-isopropylmaleate]
< 10 | CC(C)/C(C(=O)O)=C(/C(=O)O)C1Cc2ccccc2C1 [Example 18, Disodium 2-(2,3-dihydro-1H-inden-2-yl)-3-isopropylmaleate]
< 10 | CC(C)/C(C(=O)O)=C(/C(=O)O)C1CCCCC1 [Example 19, Disodium 2-cyclohexyl-3-isopropylmaleate]
< 10 | CC(C)/C(C(=O)O)=C(/C(=O)O)[C@H]1CC[C@@H](O)CC1 [Example 21, Disodium 2-(cis-4-hydroxycyclohexyl)-3-isopropylmaleate]
10 to 30 | CC(C)/C(C(=O)O)=C(\Cc1ccc(C(=O)O)cc1)C(=O)O [Example 25, Trisodium 2-(4-carboxybenzyl)-3-isopropylmaleate]
10 to 30 | CC(C)/C(C(=O)O)=C(\Cc1ccc(C(N)=O)cc1)C(=O)O [Example 26, Disodium 2-(4-carbamoylbenzyl)-3-isopropylmaleate]
10 to 30 | CC(C)/C(C(=O)O)=C(\Cc1ccc(O)cc1)C(=O)O [Example 31, Trisodium 2-(4-oxidobenzyl)-3-isopropylmaleate]
< 10 | CC(C)/C(C(=O)O)=C(\Cc1ccc(OCC(=O)O)cc1)C(=O)O [Example 32]
< 10 | CC(C)/C(C(=O)O)=C(\Cc1ccc(OC2CCNC2)cc1)C(=O)O (stereo not shown) [Example 36, Disodium 2-isopropyl-3-[4-(pyrrolidin-3-yloxy)benzyl]maleate]
30 to 100 | CC(C)/C(C(=O)O)=C(\Cc1ccc(OCCNC(=N)N)cc1)C(=O)O [Example 37, Disodium 2-[4-(2-guanidinoethoxy)benzyl]-3-isopropyl maleate]
< 10 | O=C(O)/C(=C(\C(=O)O)[C@H]1CC[C@@H](O)CC1)[C@H]1CC[C@@H](O)CC1 [Example 39, Disodium 2,3-bis(cis-4-hydroxycyclohexyl)maleate]
